Laboratory results reported in patent US20160272627A1, “POLYMORPHIC FORMS OF SUVOROXANT” (priority 2012, published 2016).

Columns and labels:
Type in all cases: physicochemical
[1] = Slurrying of Form A in solvents (Examples 26 to 38); conditions: slurrying in few solvents (Examples 26 to 38), 27° C., 17-24 hours
Procedure: Suvorexant Form-A (500 mg) and methanol (20 ml) were introduced in 100 ml round bottom flask. The heterogeneous mixture so obtained was stirred at 27° C. for 17 hours and the solid substance was then filtered under vacuum. The product was dried at 60° C. in air tray drier to obtain Form B.
The process of example 26 was repeated wherein methanol was replaced by following solvents to obtain Form B: […]

[2] = Slurry of Form B in water at about 80° C., solid analysed with XRD; conditions: water slurry at about 80° C. for about 1 hour, filtered at 80° C.
Procedure: (§1) All PXRD data reported herein are obtained using a Bruker AXS D8 Advance Powder X-ray Diffractometer or a PANalytical X-ray Diffractometer, using copper Kα radiation wavelength 1.5418 Å.
Suvorexant Form B (500 mg) and water (10 ml) were introduced in round bottom flask. The heterogeneous mixture so obtained was slurried with stirring at about 80° C. for about 1 hour and the solid substance was then filtered under vacuum at 80° C. The filtered solid was analyzed after 1 hour and 4 hours. The solid obtained after 1 hour and 4 hours were Form B up on analysis with XRD.

[3] = Slurry of Form B in water at about room temperature, solid analysed with XRD
Procedure: as §1
Suvorexant Form B (500 mg) and water (10 ml) were introduced in round bottom flask. The heterogeneous mixture so obtained was slurried with stirring at about room temperature for about 1 hour. The heterogeneous mixture was divided in to two parts. The first part was filtered under vacuum. The filtered solid was analyzed after 2 hour and 4 hours. The solid obtained after 2 hour and 4 hours were Form B up on analysis with XRD. The second part was stirred over night at room temperature and then filtered under vacuum. The solid obtained from second part was Form B up on analysis with XRD.

Row | Structure (SMILES) | polymorphic form conversion up on slurrying [1] | polymorphic form of the solid up on analysis with XRD ([2]; filtered solid analyzed after 1 hour) | polymorphic form of the solid up on analysis with XRD ([2]; filtered solid analyzed after 4 hours) | polymorphic form of the solid up on analysis with XRD ([3]; water slurry at about room temperature for about 1 hour, first part filtered, filtered solid analyzed after 2 hour) | polymorphic form of the solid up on analysis with XRD ([3]; water slurry at about room temperature for about 1 hour, first part filtered, filtered solid analyzed after 4 hours) | polymorphic form of the solid up on analysis with XRD ([3]; water slurry, second part stirred over night at room temperature, then filtered)
1 | Cc1ccc(-n2nccn2)c(C(=O)N2CCN(c3nc4cc(Cl)ccc4o3)CC[C@H]2C)c1 [Form A, 5-chloro-2-{(5R)-5-methyl-4-[5-methyl-2-(2H-1,2,3-triazol-2-yl)benzoyl]-1,4-diazepan-1 yl}-1,3-benzoxazole] | converted in to Form B | – | – | – | – | –
2 | Cc1ccc(-n2nccn2)c(C(=O)N2CCN(c3nc4cc(Cl)ccc4o3)CC[C@H]2C)c1 [Suvorexant Form B, 5-chloro-2-{(5R)-5-methyl-4-[5-methyl-2-(2H-1,2,3-triazol-2-yl)benzoyl]-1,4-diazepan-1 yl}-1,3-benzoxazole] | – | Form B | Form B | Form B | Form B | Form B
